In patent publication US10751303B2, “Method for shortening anti-infective therapy duration in subjects with infection” (INSTITUTE FOR CLINICAL PHARMACODYNAMICS, INC., priority 2015, dated 2020):
In brackets after ≈: the same amount, converted by molar mass. Entries after “also recorded” stand apart in the source; their conditions may differ.

Key:
Format in all cases: cell-based
[1] = test system: E. coli JMI 21711R; test: change in bacterial density in vitro over 24 hours (growth rate)
Description: Moreover, note the impact of ascorbic acid on the time-course of levofloxacin antimicrobial activity.

[2] = test system: S. aureus ATCC 29213; test: 10-day hollow-fiber in vitro infection model
Description: The treatment arms and associated control arms differed only in sodium chloride concentration (0 and 8%) within the growth media. The initial bacterial inoculum in the model was 1×10^8 CFU/mL was selected to approximate that observed in high-density infections, such as pneumonia. Moreover, the 10-day study duration was selected to approximate that typical for pneumonia.
Note that in the media in which the challenge isolate grew slowly (sodium chloride 8%), the time-until a reduction of bacterial density to 1×10^2 CFU/mL was 10 days. On the other hand, in the media in which the challenge isolate grew rapidly (sodium chloride 0%), the time-until reduction of bacterial density to 1×10^2 CFU/mL was 3 days.

[3] = test system: E. coli JMI 21711R; test: levofloxacin MIC; details: Escherichia coli, JMI21711R
[4] = test system: S. aureus ATCC 29213; test: levofloxacin MIC; details: Staphylococcus aureus, ATCC29213
[5] = test system: E. coli JMI 21711R; details: norepinephrine 500 μM, no levofloxacin
Experimental: Each treatment arm and its associated control arm differed only in norepinephrine concentration (0, 500 μM) within the growth media.

[6] = test system: S. aureus ATCC 29213; test: change in bacterial density in vitro over 24 hours (growth rate in Mueller-Hinton II broth); details: S. aureus ATCC 29213, in vitro over 24 hours, starting inoculum 1×10^6 CFU/mL, increasing sodium chloride concentration
[7] = test system: S. aureus ATCC 29213; test: 24-hour one-compartment dynamic in vitro infection model; details: 10% sodium chloride, no levofloxacin
Description: Not previously recognized is the potential to modulate the intrinsic bacterial replication rate in combination with an antimicrobial agent as a means to increase the rate and extent of bactericidal activity. […] Each treatment arm and associated control arm differed only in sodium chloride concentration (0, 8, and 10%) within the growth media. […] Note also that bacterial killing occurred only during bacterial replication.

O=C1O[C@H]([C@@H](O)CO)C(O)=C1O [ascorbic acid, Ascorbic acid]
bacterial replication rate relative to no treatment control ([1]; ascorbic acid without levofloxacin): increases the bacterial replication rate relative to no treatment control

C[C@H]1COc2c(N3CCN(C)CC3)c(F)cc3c(=O)c(C(=O)O)cn1c23 [levofloxacin]
reduction in time-until a reduction of bacterial density to 1×10^2 CFU/mL ([2]; fast (sodium chloride 0%) versus slow (sodium chloride 8%) growing media): 70% | time-until reduction of bacterial density to 1×10^2 CFU/mL ([2]; sodium chloride 0% (rapid growth), initial inoculum 1×10^8 CFU/mL, levofloxacin AUC:MIC ratio 520): 3 days | time-until a reduction of bacterial density to 1×10^2 CFU/mL ([2]; sodium chloride 8% (slow growth), initial inoculum 1×10^8 CFU/mL, levofloxacin AUC:MIC ratio 520): 10 days | MIC [3]: 8 µg/mL (≈ 22.1 µM) | MIC [4]: 0.125 µg/mL (≈ 0.346 µM)

NCC(O)c1ccc(O)c(O)c1 (stereo not shown) [norepinephrine, Norepinephrine]
bacterial replication rate (change in bacterial density) ([1]; starting inoculum 1×10^6 CFU/mL, increasing norepinephrine concentration): as norepinephrine concentration increases so too does the bacterial replication rate; also recorded: sped up | growth of control arm relative to no-treatment control arm [5]: grew faster

[Cl-].[Na+] [sodium chloride]
bacterial replication rate (change in bacterial density) [6]: as sodium chloride concentration increases, the bacterial replication rate decreases; also recorded: slowed | growth in control arm [7]: delayed for four hours
